The text below walks through data of patent US9637420B2, “Increased longevity of the nitrogen content of soil through improved liquid delivery formulations of urease inhibitors and/or nitrification inhibitors designed for urea and manure based fertilizers” (priority 2013, dated 2017).

The data set can be described thus: Degradation study of 2-chloro-6-trichloromethylpyridine/NBPT in DMSO at 50° C. by LC. The class given is physicochemical. How it is done: A degradation study was performed using 2-chloro-6-trichloromethylpyridine/nBPT in DMSO
2-chloro-6-trichloromethylpyridine/NBPT=1/1 (w/w) mixture was dissolved in DMSO. LC's were done to analyze the content decrease along with time. All samples were sealed and protected under N2. All sample were stored 50° C.
C18 column, 255 nm. Retention time: 40 min. temperature: 30° C. 15 μL injection. Peak area percentage were calculated to analyze the concentration.

Consider `CCCCNP(N)(N)=S` [n-butylthiophosphoric triamide], for which the “content of active, LC peak area percentage” value is, setting by setting: (week 1) 100 peak area percentage; (week 2) 99.6 peak area percentage; (week 3) 98 peak area percentage; (week 4) 97.6 peak area percentage; (week 6) 96.5 peak area percentage; (week 7) 95.3 peak area percentage. Also, the “content of active, LC peak area percentage” value by setting is: (week 8) 94.7 peak area percentage; (week 9) 93 peak area percentage; (week 10) 92.2 peak area percentage; (week 11) 92.1 peak area percentage; (week 12) 91.7 peak area percentage; (week 13) 91 peak area percentage. Also, the “content of active, LC peak area percentage” value reads like this: (week 14) 90.88 peak area percentage; (week 15) 90.01 peak area percentage; (week 16) 99.55 peak area percentage; (week 17) 89.06 peak area percentage; (week 18) 88.6 peak area percentage.

For `Clc1cccc(C(Cl)(Cl)Cl)n1` [2-chloro-6-trichloromethylpyridine], the “content of active, LC peak area percentage” value reads like this: (week 1) 100 peak area percentage; (week 2) 99 peak area percentage; (week 3) 99.4 peak area percentage; (week 4) 98.3 peak area percentage; (week 6) 95.3 peak area percentage; (week 7) 93.2 peak area percentage. The “content of active, LC peak area percentage” value is, setting by setting: (week 8) 92.3 peak area percentage; (week 9) 90.8 peak area percentage; (week 10) 88 peak area percentage; (week 11) 86.7 peak area percentage; (week 12) 86.4 peak area percentage; (week 13) 85 peak area percentage. The “content of active, LC peak area percentage” value (week 14) is 84.33 peak area percentage; the “content of active, LC peak area percentage” value (week 15) is on record as 83.56 peak area percentage; the “content of active, LC peak area percentage” value (week 16) is on record as 81.45 peak area percentage; the “content of active, LC peak area percentage” value (week 17) is on record as 81 peak area percentage; the “content of active, LC peak area percentage” value (week 18) came out at 80.09 peak area percentage.
